According to ChEMBL document CHEMBL4229526, “Quinoxaline derivatives as potential antitrypanosomal and antileishmanial agents” (Bioorg Med Chem, 2018):

Assays:
[1] = Cytotoxicity against human HepG2 cells after 48 hrs by CellTiter-Glo cell viability assay; format: cell-based
Leishmania donovani [2] = assay: Antileishmanial activity against Leishmania donovani MHOM/SD/62/1S-CL2D LdBOB amastigotes harboring eGFP infected in human THP1 cells assessed as reduction in number of amastigotes per cell after 96 hrs by DAPI staining based microscopic analysis; format: functional, organism-based; conditions: THP-1, 96 h
THP-1 = assay: Cytotoxicity against human THP1 cells infected with Leishmania donovani MHOM/SD/62/1S-CL2D LdBOB amastigotes harboring eGFP assessed as reduction in cell number after 96 hrs by DAPI staining based microscopic analysis; conditions: THP-1, 96 h
Trypanosoma brucei = assay: Antitrypanosomal activity against Trypanosoma brucei Lister 427 bloodstream forms after 48 hrs by resazurin dye based fluorescence assay; format: functional, organism-based; conditions: Lister 427, 48 h
Trypanosoma cruzi [3] = assay: Antitrypanosomal activity against Trypanosoma cruzi Tulahuen amastigote forms infected in rat H9c2 cells assessed as reduction in infected cells after 72 hrs by DRAQ5 DNA dye based confocal microscopic analysis; format: functional, organism-based; conditions: H9c2, 72 h
Leishmania donovani [4] = assay: Antileishmanial activity against Leishmania donovani MHOM/SD/62/1S-CL2D LdBOB axenic amastigotes harboring eGFP after 72 hrs by resazurin dye based fluorescence assay; format: functional, organism-based
Trypanosoma cruzi [5] = assay: Antitrypanosomal activity against Trypanosoma cruzi Tulahuen amastigote forms infected in rat H9c2 cells assessed as reduction in amastigote number per cell after 72 hrs by DRAQ5 DNA dye based confocal microscopic analysis; format: functional, organism-based; conditions: H9c2, 72 h
H9c2 = assay: Cytotoxicity against rat H9c2 cells infected with Trypanosoma cruzi Tulahuen amastigote forms assessed as reduction in cell number after 72 hrs by DRAQ5 DNA dye based confocal microscopic analysis; conditions: H9c2, 72 h
Leishmania donovani [6] = assay: Antileishmanial activity against Leishmania donovani MHOM/SD/62/1S-CL2D LdBOB amastigotes harboring eGFP infected in human THP1 cells assessed as reduction in infected cells after 96 hrs by DAPI staining based microscopic analysis; format: functional, organism-based; conditions: THP-1, 96 h
Trypanosoma cruzi [7] = assay: Antitrypanosomal activity against Trypanosoma cruzi Tulahuen trypomastigote forms infected in monkey LLC-MK2 cells after 24 hrs by CellTiter-Glo luminescent cell viability assay; format: functional, organism-based; conditions: LLC-MK2, 24 h

SMILES | CC50 at 48 h [1] | IC50 (Leishmania donovani [2]) | IC50 (THP-1) | IC50 (Trypanosoma brucei) | IC50 (Trypanosoma cruzi [3]) | IC50 (Leishmania donovani [4]) | IC50 (Trypanosoma cruzi [5]) | IC50 (H9c2) | IC50 (Leishmania donovani [6]) | IC50 (Trypanosoma cruzi [7])
Clc1cc2nc(-c3ccccc3)c(-c3ccccc3)nc2cc1Cl | > 100 µM | > 50 µM | > 50 µM | 39.8 µM | > 50 µM | > 50 µM | > 50 µM | > 50 µM | > 50 µM | > 50 µM
NCCC[C@](N)(C(=O)O)C(F)F [EFLORNITHINE, (S)-] | – | – | – | 32.4 µM | – | – | – | – | – | –
COc1ccc2nc(NC3CCCCC3)c(S(C)(=O)=O)nc2c1 | 12.6 µM | 6.31 µM | 10 µM | 15.8 µM | 15.8 µM | 10 µM | 12.6 µM | 6.31 µM | 7.94 µM | 3.64 µM
COc1ccc(-c2nc3ccccc3nc2-c2ccc(OC)cc2)cc1 | > 100 µM | > 50 µM | > 50 µM | 31.6 µM | 12.6 µM | > 50 µM | 10 µM | > 50 µM | > 50 µM | > 50 µM
CCCCCCCCCCCCCCCCOP(=O)([O-])OCC[N+](C)(C)C [MILTEFOSINE] | – | 3.98 µM | 15.8 µM | – | – | 7.94 µM | – | – | 5.01 µM | –
CCCCNc1nc2cc(Br)ccc2nc1S(C)(=O)=O | 7.94 µM | 6.31 µM | 7.94 µM | 6.31 µM | 7.94 µM | 5.01 µM | 5.01 µM | 5.01 µM | 10 µM | 0.98 µM
CCCCNc1nc2ccccc2nc1S(C)(=O)=O | 12.6 µM | 19.9 µM | 12.6 µM | 25.1 µM | 15.8 µM | 10 µM | 15.8 µM | 10 µM | 25.1 µM | 8.67 µM
COc1ccc2nc(S(C)(=O)=O)c(NC3CCCCC3)nc2c1 | 79.4 µM | > 50 µM | 31.6 µM | 25.1 µM | 19.9 µM | > 50 µM | 15.8 µM | 19.9 µM | > 50 µM | 42.5 µM
COc1ccc2nc(NCC(C)C)c(S(C)(=O)=O)nc2c1 | 12.6 µM | 12.6 µM | 7.94 µM | 25.1 µM | 19.9 µM | 12.6 µM | 15.8 µM | 10 µM | 19.9 µM | 5.44 µM
COc1ccc2nc(NCCO)c(S(C)(=O)=O)nc2c1 | 39.8 µM | 25.1 µM | 31.6 µM | 39.8 µM | 39.8 µM | 25.1 µM | 31.6 µM | 31.6 µM | > 50 µM | 23.5 µM
Cc1ccc(C(=O)Nc2ccc(S(=O)(=O)O)c3cc(S(=O)(=O)O)cc(S(=O)(=O)O)c23)cc1NC(=O)c1cccc(NC(=O)Nc2cccc(C(=O)Nc3cc(C(=O)Nc4ccc(S(=O)(=O)O)c5cc(S(=O)(=O)O)cc(S(=O)(=O)O)c45)ccc3C)c2)c1 [SURAMIN] | – | – | – | 0.18 µM | – | – | – | – | – | –
O=C(Cn1ccnc1[N+](=O)[O-])NCc1ccccc1 [BENZNIDAZOLE] | – | – | – | 3.24 µM | 5.3 µM | – | 1.26 µM | > 50 µM | – | 23 µM
N=C(N)c1ccc(OCCCCCOc2ccc(C(=N)N)cc2)cc1 [PENTAMIDINE] | – | – | – | 0.01 µM | – | – | – | – | – | –
C[C@@H]1[C@H](O)[C@@H](C)/C=C/C=C/C=C/C=C/C=C/C=C/C=C/[C@H](O[C@@H]2O[C@H](C)[C@@H](O)[C@H](N)[C@@H]2O)C[C@@H]2O[C@](O)(C[C@@H](O)C[C@@H](O)[C@H](O)CC[C@@H](O)C[C@@H](O)CC(=O)O[C@H]1C)C[C@H](O)[C@H]2C(=O)O [AMPHOTERICIN B] | – | 0.63 µM | 10 µM | – | – | 1.58 µM | – | – | 0.63 µM | –
CC1CS(=O)(=O)CCN1/N=C/c1ccc([N+](=O)[O-])o1 (stereo unspecified) [NIFURTIMOX] | – | – | – | 7.58 µM | 5.9 µM | – | 0.4 µM | > 50 µM | – | 2.97 µM
